This is an account of results in PubChem BioAssay AID2305 (GlaxoSmithKline (GSK), 2010).

The term IC50 denotes the midpoint of a concentration-inhibition curve. Lower therefore signals greater potency.

Where a SMILES comes first, the peptide text is derived from it.

The subject of this experiment is P. falciparum 3D7 growth, pLDH absorbance. In words: blood-stage malaria parasite growth potency – strain 3D7, dose response (AID 2305).
On to `CCc1ccc(CN2CCC(CNC(=O)c3cc(-c4ccccc4F)cs3)C2)cc1` (stereo unspecified), for which the IC50 is 900 nM. Then `CCNc1cc(C(=O)N[C@@H](Cc2ccccc2)[C@H](O)CNC2CCCC2)cc(N2CCCC2=O)c1`, with 80 nM; and `O=C(N[C@@H](Cc1ccccc1)C(=O)NCc1cccc2ccccc12)c1ccc(O)c(-c2ccc(Cl)c(Cl)c2)c1`, with 240 nM. As for `c1ccc2[nH]c(-c3ccc(-c4ccc(CN5CCCCC5)cc4)s3)nc2c1`, the figure is 740 nM.

For the molecule `O=C(Nc1ccc(OC2CCN(Cc3ccco3)C2)c(Cl)c1)c1ccc2ncccc2c1` (stereo unspecified), the half-maximal inhibitory concentration (IC50) is 1080 nM. Regarding `CCCC(C)N(Cc1ccc(C(C)(C)C)cc1)C(=O)c1cccc(C#N)c1` (stereo unspecified), the 50% inhibitory concentration (IC50) came out at 1050 nM. Consider `COc1c(C2CCN(CCCCNC(=O)c3ccc(C)c(-c4ccc(C(F)(F)F)cc4)c3)CC2)ccc2c1CCCC2`, for which the concentration for half-maximal inhibition (IC50) is 880 nM. Molecule `O=C(/C=C/c1ccc(Cl)c(Cl)c1)NCCCCCN1CCC(NC(=S)Nc2ccc(Cl)cc2)CC1` showed a 50% inhibitory concentration (IC50) of 440 nM.

Consider `COc1ccccc1NC(=S)N/N=C/c1ccc(O)cc1O`, for which the IC50 amounted to 1020 nM. For `Cc1noc(C)c1-c1cccc(CNCc2ccc(-c3ccc(-c4nc5c(C)cccc5[nH]4)cc3)cc2)c1`, the half-maximal inhibitory concentration (IC50) came out at 240 nM.

As for `O=c1cc(NC[C@@H]2CCC[C@@H]2NCc2ccc(Cl)c(Cl)c2)[nH]c2ccccc12`, the half-maximal inhibitory concentration (IC50) is 600 nM. Turning to `CC(C)(C)c1ccc(S(=O)(=O)Nc2ccccc2Cn2nc(N3CCNCC3)ccc2=O)cc1`, the 50% inhibitory concentration (IC50) turned out to be 850 nM. Molecule `COc1ccc(OC)c2c1CCN(C)C2Cc1cccc2ccccc12` (stereo unspecified) gave an IC50 of 1050 nM. `CC1(C)[C@H]2CC[C@@H](CNc3nc(NCCc4cnc[nH]4)nc(NCc4cc(F)ccc4F)n3)[C@@H]1C2` displayed a half-maximal inhibitory concentration (IC50) of 310 nM. As for `Cc1cc(NC(=O)Nc2ccc3ccn(C)c3c2)c2ccccc2n1`, the figure is 210 nM.

Take `CCCCc1ccc2[nH]cc(C(=O)OCC)c(=O)c2c1`: the 50% inhibitory concentration (IC50) came to 630 nM. Molecule `O=C(/C=C/c1c(Cl)cccc1Cl)NC1CCC(CN2CCC(c3c[nH]c4ccncc34)CC2)CC1` (stereo unspecified) gave a half-inhibitory concentration (IC50) of 160 nM.

`C=CCn1cc(C2CCN(CCCCNC(=O)c3sc(-c4ccc(C(F)(F)F)cc4)nc3CO)CC2)c2cc(OC)ccc21`: the half-maximal inhibitory concentration (IC50) was determined as 1040 nM. As to `Cc1ccc(NC(=O)c2ccc(N3CCN(c4ccncc4)CC3)cn2)cc1F`, the half-maximal inhibitory concentration (IC50) turned out to be 1570 nM. Take `CN1CCC(c2c[nH]c3ccc(NC(=O)Nc4ccc(-c5ccncc5)cc4Cl)cc23)CC1`: the half-inhibitory concentration (IC50) is 840 nM.

As for `CCCCCCCCc1c(C)[nH]c(C)c(Br)c1=O`, the 50% inhibitory concentration (IC50) is 820 nM. Then `CCOc1cc(C(=O)NCCc2ccc(Cl)c(Cl)c2)ccc1-c1nc2ccc(Cl)cc2[nH]1`, with 890 nM; and `Cc1cc(N2CCC(NS(=O)(=O)c3cccc4cccnc34)CC2)nc(Nc2cccc(C#N)c2)n1`, with 750 nM. Regarding `COc1ccc2ncc(F)c(CCN3CC[C@H](NCc4cc(C#N)c5c(c4)OCCO5)[C@H](O)C3)c2c1`, the IC50 amounted to 890 nM. `Cc1nc(C)c(CC(=O)Nc2ccc(-c3ccc(-c4nc5ccc(C(F)(F)F)cc5[nH]4)s3)cc2)s1`: the half-inhibitory concentration (IC50) worked out at 1030 nM. As for `CC(C)(C)C(C)(C)Cc1ccc(O)c(CN2CCN(c3ccccc3)CC2)c1`, the figure is 600 nM.

In the case of `FC(F)(F)c1ccc2nc(-c3ccc(-c4cccc(CNCCc5cccnc5)c4)s3)[nH]c2c1`, the 50% inhibitory concentration (IC50) is 170 nM. As for `Cc1cc2nc(-c3ccc(C(=O)NCc4ccc(Cl)c(Cl)c4)cc3)[nH]c2cc1C`, the figure is 830 nM; as for `CC(=O)Nc1ccc(OCCCCN(Cc2ccccc2C(F)(F)F)c2ccc(C#N)c(C(F)(F)F)c2)c(Cl)c1`, 980 nM.

For `CCCC[C@H](NC(=O)OC(C)(C)C)C(=O)Nc1ccc(Cc2ccc(NC(=O)[C@H](CCCC)NC(=O)OC(C)(C)C)cc2)cc1`, the half-inhibitory concentration (IC50) worked out at 730 nM. Then `OC(CNC1CCCCC1)c1ccc(Cl)c(Cl)c1` (stereo unspecified), with 700 nM. As for `Clc1ccc(-c2cc3c(NCc4ccncc4)nccc3s2)cc1`, the figure is 850 nM; as for `CN(Cc1cccc(O)c1)C1CCN(c2cc(NC(=O)c3cccc(F)c3)ccn2)CC1`, 850 nM. With `CCN(CC)Cc1cc(NC(=O)c2ccccc2O)ccc1Oc1ccc(Cl)cc1`, the IC50 stood at 830 nM. As to `Cc1ccc(CN2CCCN(Cc3cccc(NC(=O)c4ccc(-c5ccccc5)cc4)c3)CC2)cc1C`, the IC50 was 1250 nM. Then `CCCCCNc1nc2nc(N)nc(N)c2nc1-c1ccccc1`, with 950 nM; and `NC1=NC2(CCCCC2)N(OCC2CCCCC2)C(N)=N1`, with 150 nM; and `O=C(NCC1CCC(CNCCCc2ccccc2)CC1)Nc1ccc(Cl)c(Cl)c1` (stereo unspecified), with 770 nM. The molecule `COc1cc(Cc2cnc(N)nc2N)cc(OCC(C)(C)C(=O)O)c1OC` showed a half-inhibitory concentration (IC50) of 1110 nM. As for `O=C(NCC(=O)N1CCC[C@H]1C(=O)O)[C@@H](Cc1ccccc1)NC(=O)[C@@H]1CCCN1C(=O)CCCc1ccc(O)cc1` (HELM PEPTIDE1{[O=C(CCCc1ccc(O)cc1)[*:2]].P.[dF].G.P}$$$$V2.0), the figure is 1050 nM.

For `CCNC(C)(C)CN(Cc1ccc(-c2ccc(C(F)(F)F)cc2)cc1)C(=O)Cn1c(CCc2cccc(F)c2F)nc(=O)c2ccccc21`, the IC50 is 810 nM. Then `O=C(Nc1cccc(-c2cccc(-c3nc4ccc(C(F)(F)F)cc4[nH]3)c2)c1)c1ccc(=O)[nH]n1`, with 660 nM; and `NC(=NCCc1ccccc1Cl)c1ccc2ccccc2c1`, with 1630 nM.

Take `CC(=O)N[C@H](C(=O)Nc1ccc(-c2ccc(-c3nc4ccc(C(F)(F)F)cc4[nH]3)cc2)cc1)C(C)C`: the IC50 is 890 nM. Then `COc1ccccc1NS(=O)(=O)c1cc(C(=O)Nc2ccc(N3CCOCC3)c(S(=O)(=O)Nc3ccccc3Cl)c2)ccc1Cl`, with 830 nM. As for `Cc1cccc2[nH]c(-c3cccc(-c4ccc(NC(=O)c5ccoc5)cc4)c3)nc12`, the figure is 700 nM. `CC(=O)N1c2ccccc2C(C)=CC1(C)C` came in with a concentration for half-maximal inhibition (IC50) of 940 nM.

`CC(=O)Nc1ccc(OCCN(Cc2ccccc2OC(F)(F)F)c2ccc(C(F)(F)F)c(C#N)c2)c(Cl)c1` showed a half-maximal inhibitory concentration (IC50) of 460 nM. Molecule `CCCNCc1ccc(-c2ccc(CN(CCOC)C(=O)[C@H]3CCCO3)cc2)nc1` gave a concentration for half-maximal inhibition (IC50) of 750 nM. In turn, `Cc1ccc(S(=O)(=O)NC2CCN(CCNC(=O)Nc3cc(C)nc4ccccc34)C2)cc1` (stereo unspecified) yielded an IC50 of 1040 nM.

For `OC(CNCc1ccccc1)c1cc(OCc2ccccc2)cc(OCc2ccccc2)c1` (stereo unspecified), the IC50 turned out to be 1000 nM. With `CCCN(CCC)C(=O)c1cc(C(=O)N[C@@H](Cc2ccccc2)[C@H](O)CNC2CC2)cc(N2CCCCS2(=O)=O)c1`, the half-inhibitory concentration (IC50) was determined as 160 nM. Molecule `NC(=O)c1ccsc1NC(=O)CNC(c1ccccc1)c1ccccc1` gave an IC50 of 940 nM. Consider `O=C(NC1CC1)c1ccc(N2CCCC(COc3ccc4c(c3)CCCC4)C2)nc1` (stereo unspecified), for which the half-inhibitory concentration (IC50) is 1080 nM. `COc1cc(Nc2ccnc3ccc(C(F)(F)F)cc23)ccc1OCCCc1ccccc1` gave an IC50 of 770 nM. As for `NC(N)=Nc1ccc(Cc2ccc(N=C(N)N)cc2)cc1`, the figure is 260 nM; as for `Cc1cccc2[nH]c(-c3cccc(-c4ccc(NC(=O)Nc5ccc(F)c(F)c5F)cc4)c3)nc12`, 170 nM; as for `Cc1cc(N)nc2ccc(-c3cccc(CN)c3)cc12`, 710 nM. As for `Fc1cccc2sc(Nc3nc(-c4ccccn4)cs3)nc12`, the figure is 910 nM; as for `CCOc1ccc(C(C)NC(=O)C2COc3ccccc3O2)cc1OCC` (stereo unspecified), 900 nM; as for `Oc1ccc(Nc2nc(NCc3ccco3)c3ccccc3n2)cc1`, 670 nM. Then `COc1ccc(O)c(Cc2cnc3nc(N)nc(N)c3c2C)c1`, with 40 nM; and `Cc1cc(N[C@@H](CC(C)C)C(=O)NCc2cccs2)nc(NCCc2cccs2)n1`, with 1020 nM. Regarding `Fc1ccccc1COc1ccc(Nc2ncnc3ccc(-c4nnc(C(F)(F)F)o4)cc23)cc1Cl`, the IC50 was 730 nM. For the molecule `Cc1noc(C)c1-c1ccc2c(Nc3ccccc3C(C)(C)C)c(C(=O)NCc3ccc4c(c3)OCO4)cnc2c1`, the IC50 came out at 910 nM. As to `COc1cc2nc(N3CCC(CNC(=O)c4cc5ccccc5s4)CC3)nc(N)c2cc1OC`, the half-maximal inhibitory concentration (IC50) was 290 nM.

`CCc1ccc(-c2nc3cc(NC(=O)c4ccc([N+](=O)[O-])o4)ccc3o2)cc1` yielded an IC50 of 250 nM. Molecule `CCc1ccc(O)c(-c2cc(C(=O)Nc3ccc(OC)c(Cl)c3)[nH]n2)c1` yielded a 50% inhibitory concentration (IC50) of 870 nM. As for `COc1cccc(C(=O)NC(NC(=S)Nc2ccc(OC)cc2[N+](=O)[O-])C(Cl)(Cl)Cl)c1` (stereo unspecified), the figure is 760 nM; as for `CN1CCc2cc(NC(=O)c3cc4ccccc4s3)cc(-c3ccccc3)c2CC1`, 890 nM; as for `Cc1ccc(N2CCc3c(-c4cc5cccnc5nc4C)cc(C)nc32)c(Cl)c1`, 580 nM. Then `O=C(/C=C/c1ccc(Cl)c(Cl)c1)N1CCC(CN2CC[C@H](c3c[nH]c4ccccc34)[C@@H](O)C2)CC1`, with 810 nM; and `Cc1cc(=O)[nH]c(/N=C(/N)NOCCCc2ccccc2)n1`, with 760 nM; and `N#Cc1ccc2c(c1)CCN(CCC1CCC(NC(=O)/C=C/c3ccc4ccccc4c3)CC1)CC2` (stereo unspecified), with 720 nM. Then `CCCCOC(=O)C1=C(C)NC2=C(C(=O)CC(c3ccc(OC)c(OC)c3)C2)C1c1ccc(O)cc1` (stereo unspecified), with 830 nM. `Cc1cccc2[nH]c(-c3ccc(-c4ccc(CN5CCC(C(N)=O)CC5)cc4)s3)nc12` yielded a 50% inhibitory concentration (IC50) of 910 nM.

Take `O=C(Nc1cccc(-c2cccc(-c3nc4ccccc4[nH]3)c2)c1)c1csnn1`: the IC50 came to 920 nM.

In the case of `CN(C)c1ccc(-c2csc(C(=O)NCC3CCN(CCC(C)(C)C)C3)c2)cc1` (stereo unspecified), the 50% inhibitory concentration (IC50) worked out at 1500 nM. Then `Oc1ccc(CCNc2nc(NCc3ccc4cc(Cl)ccc4c3)nc(N3CCNCC3)n2)cc1`, with 1020 nM; and `Cc1ccc(Nc2nc3cc(Nc4ccnc(Nc5ccc(CS(C)(=O)=O)cc5)n4)ccc3o2)cc1`, with 760 nM; and `CCc1cccc(OCC2CCCN(c3ccc(C(=O)NC4CC4)cn3)C2)c1` (stereo unspecified), with 1440 nM.

In the case of `COc1ccc(NC(=O)Nc2ccc(Nc3nc(C)cc(N(C)C)n3)cc2)cc1`, the IC50 was found to be 450 nM. `COc1ccc(CCNCCCCCCNCCc2ccc(OC)c(OC)c2Cl)c(Cl)c1OC`: the IC50 came out at 900 nM. Take `COc1cc(C(C)C)ccc1N1CCN(CCCCNC(=O)c2ccc(NC(=O)c3ccc(Cl)cc3)cc2)CC1`: the IC50 is 580 nM. Then `Nc1nc2c(ncn2COC2COP(=O)(O)OC2)c(=O)[nH]1` (stereo unspecified), with 450 nM; and `O=S(=O)(Nc1ccc(CCN2CCC(N3CCCCC3)CC2)cc1)c1cccc(C(F)(F)F)c1`, with 700 nM.
